2 compounds from ChEMBL document CHEMBL5096235, “In Silico Exploration and Biological Evaluation of Bispecific Peptides Derived from Anti-HER2 Antibodies and Peptide-Camptothecin Conjugates for HER2-Positive Breast Cancer” (J Med Chem, 2022) can be followed below.

A short description of data set [1]: Hemolytic activity in rat erythrocytes at 3.125 to 100 uM by microplate reader analysis relative to control. In kind it is toxicity, cell-based, Erythrocyte. The conditions noted are these: dose 3.125-100 µM, read-out: Activity.
Data set [2] is described as follows: Toxicity in nude mouse xenografted with human SK-BR-3 cells assessed as inflammatory cell infiltration at 8 micromol/kg, iv administered every 3 days for 14 days by H and E staining based analysis. Type of data set: organism-based. The conditions noted are these: in vivo, 336 h, dose 8 µmol/kg, time 14 day. Background: Xenograft models place foreign cells or tissue in a host animal.

Data set [3] in a line: Metabolic stability in Sprague-Dawley rat plasma assessed as half life incubated for 120 mins by LC-MS/MS analysis. Type of data set: ADME, cell-free.
Data set [4] can be described thus: Renal toxicity in nude mouse xenografted with human SK-BR-3 cells assessed as effect on blood urea nitrogen level at 8 micromol/kg, iv administered every 3 days for 14 days. Type of data set: organism-based. The settings on record: in vivo, 336 h, dose 8 µmol/kg, time 14 day.
For data set [5], the target named is Epidermal growth factor receptor and ErbB2 (HER1 and HER2) (Homo sapiens) (UniProt P04626+P00533). The data set is described as follows: Inhibition of EGFR/HER2 heterodimerization in human SK-BR-3 cells at 10 uM preincubated for 4 hrs followed by EGF addition for 20 mins by immunoprecipitation analysis. The settings on record: time 260.0 min. Type of data set: cell-based.

The nature of data set [6]: Drug metabolism in human SK-BR-3 cells assessed as camptothecin release at 50 uM measured after 4 hrs by LC-MS/MS analysis. In kind it is ADME, cell-based. The conditions noted are these: sk-br-3, 4 h.
The nature of data set [7]: Toxicity in nude mouse xenografted with human SK-BR-3 cells assessed as effect on albumin level at 8 micromol/kg, iv administered every 3 days for 14 days. Type of data set: organism-based. The settings on record: in vivo, 336 h, dose 8 µmol/kg, time 14 day.
In data set [8] the test system is SK-BR-3. The data set is described as follows: Induction of apoptosis in human SK-BR-3 cells assessed as live cells at 1 uM incubated for 24 hrs by Annexin V-FITC/PI staining based flow cytometry analysis (Rvb= 89.4%). In kind it is functional. In general terms: Flow cytometry measures light scatter and fluorescence of single cells or particles in a stream.
A short description of data set [9]: Cytotoxicity against human MCF-10A cells assessed as inhibition of cell growth incubated for 48 hrs by MTT assay. Type of data set: toxicity, cell-based.
A short description of data set [10]: Toxicity in nude mouse xenografted with human SK-BR-3 cells assessed as spleen damage at 8 micromol/kg, iv administered every 3 days for 14 days by H and E staining based analysis. The conditions noted are these: in vivo, 336 h, dose 8 µmol/kg, time 14 day. Type of data set: organism-based.
For data set [11], the system named is SK-BR-3. The data set can be described thus: Induction of apoptosis in human SK-BR-3 cells assessed as early apoptotic cells at 2 uM incubated for 24 hrs by Annexin V-FITC/PI staining based flow cytometry analysis (Rvb= 4.37%). In kind it is functional.
Data set [12] in a line: Toxicity in nude mouse xenografted with human SK-BR-3 cells assessed as effect on creatinine level at 8 micromol/kg, iv administered every 3 days for 14 days. The conditions noted are these: in vivo, 336 h, dose 8 µmol/kg, time 14 day. Type of data set: organism-based.
Data set [13] can be described thus: Metabolic stability in Sprague-Dawley rat plasma assessed as drug degradation incubated for 120 mins by LC-MS/MS analysis. In kind it is ADME, cell-free. The conditions noted are these: 2 h.
The target of data set [14] is T1, DNA topoisomerase 1 (Homo sapiens) (UniProt P11387).
T1 sequence (whole entry): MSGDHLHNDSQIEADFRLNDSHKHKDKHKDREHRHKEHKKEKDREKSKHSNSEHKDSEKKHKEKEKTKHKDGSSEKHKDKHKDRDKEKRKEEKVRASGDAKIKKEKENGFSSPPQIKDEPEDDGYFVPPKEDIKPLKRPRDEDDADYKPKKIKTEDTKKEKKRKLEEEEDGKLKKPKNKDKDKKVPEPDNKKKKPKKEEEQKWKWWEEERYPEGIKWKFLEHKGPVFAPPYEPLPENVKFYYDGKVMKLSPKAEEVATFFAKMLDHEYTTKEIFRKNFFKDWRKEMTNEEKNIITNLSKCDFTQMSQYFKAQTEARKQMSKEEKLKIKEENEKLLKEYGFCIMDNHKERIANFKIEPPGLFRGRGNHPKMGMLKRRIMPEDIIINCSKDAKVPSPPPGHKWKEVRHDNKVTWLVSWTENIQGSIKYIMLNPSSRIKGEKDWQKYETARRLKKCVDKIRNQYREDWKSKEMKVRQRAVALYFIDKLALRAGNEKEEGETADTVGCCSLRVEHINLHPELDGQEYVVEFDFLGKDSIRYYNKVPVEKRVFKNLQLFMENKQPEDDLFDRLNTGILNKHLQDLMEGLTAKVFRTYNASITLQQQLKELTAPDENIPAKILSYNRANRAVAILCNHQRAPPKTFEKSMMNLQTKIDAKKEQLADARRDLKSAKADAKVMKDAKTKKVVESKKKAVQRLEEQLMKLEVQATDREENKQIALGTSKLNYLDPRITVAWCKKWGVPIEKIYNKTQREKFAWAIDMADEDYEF
The data set can be described thus: Inhibition of topoisomerase 1 (unknown origin) assessed as relaxation of supercoiled plasmid pBR322 DNA at 10 uM preincubated for 20 mins followed by pBR322 DNA addition and measured after 30 mins by agarose gel electrophoresis analysis. The conditions noted are these: time 50.0 min.

Active and inactive are the calls of the source. The calls are words filed in the database; no cut-off is given here. Residues, ends and D or L forms follow the SMILES beside them. *: point of attachment. S(CH2)2OCO2(CPT-20-yl) = CC[C@@]1(OC(=O)OCCS*)C(=O)OCc2c1cc1n(c2=O)Cc2cc3ccccc3nc2-1

Take `CC[C@H](C)[C@H](NC(=O)[C@@H](N)CCCNC(=N)N)C(=O)N[C@@H](CCCCN)C(=O)N1CCC[C@H]1C(=O)N[C@@H](CCCNC(=N)N)C(=O)N[C@@H](CCCCN)C(=O)NCC(=O)N[C@@H](Cc1ccc(O)cc1)C(=O)N[C@H](C(=O)N[C@@H](CCCNC(=N)N)C(=O)NCC(=O)N[C@@H](CSSCCOC(=O)O[C@]1(CC)C(=O)OCc2c1cc1n(c2=O)Cc2cc3ccccc3nc2-1)C(=O)NCC(=O)N[C@@H](CC(N)=O)C(=O)N1CCC[C@H]1C(=O)N[C@@H](CC(N)=O)C(=O)N[C@@H](Cc1c[nH]c2ccccc12)C(=O)NCC(=O)N[C@@H](CCCNC(=N)N)C(=O)N[C@@H](CO)C(=O)N[C@@H](Cc1c[nH]c2ccccc12)C(=O)N[C@@H](Cc1ccc(O)cc1)C(=O)N[C@@H](CC(N)=O)C(=O)N[C@@H](CCC(N)=O)C(=O)N[C@@H](CCCNC(=N)N)C(=O)N[C@@H](Cc1ccccc1)C(=O)N[C@@H](CCCCN)C(N)=O)[C@@H](C)O` (H-RIKPRKGYTRGC(S(CH2)2OCO2(CPT-20-yl))GNPNWGRSWYNQRFK-NH2): the hemolysis at 100 µM in [1] is less than 10%. For the same compound, the Activity entry in data set [2] is reported as “Non-Toxic”; in data set [4], “Non-Toxic”; in data set [7], “Non-Toxic”; in data set [8], 57.6%; in data set [10] it was “Non-Toxic”; in [11], 39.4%. Moreover, in data set [12], the Activity result is reported as “Non-Toxic”. For the same compound, in [3], the half-life was 15 min. Besides, the inhibition entry in data set [5] was “Active”. Further, the Drug metabolism result in data set [6] is on record as “Metabolite_Detected”. In [9], the IC50 at 48 h was 23.9 µM. Also, the Stability entry in data set [13] is “Unstable”.
`CC[C@H](C)[C@H](NC(=O)[C@@H](N)CCCNC(=N)N)C(=O)N[C@@H](CCCCN)C(=O)N1CCC[C@H]1C(=O)N[C@@H](CCCNC(=N)N)C(=O)N[C@@H](CCCCN)C(=O)NCC(=O)N[C@@H](Cc1ccc(O)cc1)C(=O)N[C@H](C(=O)N[C@@H](CCCNC(=N)N)C(=O)NCC(=O)N[C@@H](CSSCCOC(=O)O[C@]1(CC)C(=O)OCc2c1cc1n(c2=O)Cc2cc3ccccc3nc2-1)C(=O)NCC(=O)N[C@@H](CSSCCOC(=O)O[C@]1(CC)C(=O)OCC2=C1C=C1c3nc4ccccc4cc3NC1C2=O)C(=O)NC(=O)C[C@H](NC(=O)CN)C(=O)N1CCC[C@H]1C(=O)N[C@@H](CC(N)=O)C(=O)N[C@@H](Cc1c[nH]c2ccccc12)C(=O)NCC(=O)N[C@@H](CCCNC(=N)N)C(=O)N[C@@H](CO)C(=O)N[C@@H](Cc1c[nH]c2ccccc12)C(=O)N[C@@H](Cc1ccc(O)cc1)C(=O)N[C@@H](CC(N)=O)C(=O)N[C@@H](CCC(N)=O)C(=O)N[C@@H](CCCNC(=N)N)C(=O)N[C@@H](Cc1ccccc1)C(=O)N[C@@H](CCCCN)C(N)=O)[C@@H](C)O` (stereo partly specified): the Activity entry is given as “Non-Toxic” in [2]; “Toxic” in data set [4]; “Non-Toxic” in data set [7]; 51.2% in data set [8]; “Non-Toxic” in [10]; 41% in [11]. In addition, in data set [12], the Activity result is on record as “Non-Toxic”. In addition, in data set [3], the half-life is 15 min. Further, the inhibition entry in [5] and in [14] was “Active” in each case. Besides, the Drug metabolism entry in data set [6] is “Metabolite_Detected”. Further, the IC50 at 48 h in data set [9] amounted to 17.1 µM. The Stability entry in [13] is listed as “Unstable”.

In general, half-life refers to how long it takes for the measured level to halve. Broadly, the IC50 is the concentration that gives 50% inhibition.
